From patent publication US9394275B2, “Diamide compounds having muscarinic receptor antagonist and BETA2 adrenergic receptor agonist activity” (THERAVANCE RESPIRATORY COMPANY, LLC, priority 2009, dated 2016)
Structures can show the parent of a compound that is named as a salt.

test system: MCh-induced bronchoconstriction in a rat; assay: Einthoven assay: bronchoprotection against methacholine (MCh)-induced bronchoconstriction; type: in vivo; details: Rattus norvegicus, inhaled or nasal, 24 h, read-out: Broncho. at 24 h
Method: This assay measures the ability of a test compound to provide bronchoprotection against methacholine (MCh)-induced bronchoconstriction in a rat. Male Sprague-Dawley rats (Harlan, Indianapolis, Ind.), weighing between 200 g and 350 g, were used for all studies. Test compound or vehicle (sterile deionized water) were dosed by inhalation (IH) over a 10 min period in a pie shaped inhalation chamber (R+S Molds, San Carlos, Calif.) using 5 mL of dosing solution. […] Rats were dosed with 100 μg of test compound unless otherwise indicated. At predetermined time points, rats were anesthetized with an intraperitoneal (IP) injection of 120 mg/kg inactin (thiobutabarbital). A supplemental dose (40 mg/kg, IP) was administered if the animal responded to physical stimuli (e.g. toe pinch). The surgical site was shaved and a 1-2 cm midline incision of the ventral aspect of the neck was made. The jugular vein was isolated and cannulated with a saline-filled polyethylene catheter (PE-50) to allow IV infusion of MCh. Trachea was dissected free and cannulated with a 14G needle (#NE-014, Small Parts, Miami Lakes, Fla.). After placement of the tracheal cannula, each rat was ventilated using a respirator (Model 683, Harvard Apparatus, Inc., MA) set at a stroke volume of 1 mL/100 g body weight (but not exceeding 2.5 mL volume) and a rate of 90 strokes per minute. A T-connector was placed along the respirator expiratory tubing to allow for measurement of changes in ventilation pressure (VP) using a Biopac transducer that was connected to a Biopac […]) pre-amplifier. Body temperature was maintained at 37° C. using a heating pad. Changes in VP were recorded using the Acknowledge Data Collection Software (Santa Barbara, Calif.). Baseline values were collected for at least 2.5 min. Rats were then challenged with non-cumulative intravenous (IV) infusions of 40 and 80 μg/kg MCh. MCh was infused intravenously for 2.5 minutes from a syringe pump (sp210iw, World Precision Instruments, Inc., Sarasota, Fla.) at a rate of 2 mL/kg/min, with a 2 minute interval between the two doses of MCh. Changes in ventilation pressure (cm H2O) in treated animals are expressed as % inhibition of MCh response relative to control animals. Other bronchoconstrictors, such as histamine and acetylcholine, can be used in place of MCh in this assay. Additionally, guinea pigs can be used instead of rats. […] Inhibition greater than or equal to 30 percent at 24 h is indicative of a long duration of action.

SMILES	inhibition in vivo at 0.1 mg [%]
C[C@H](Cc1cccc(CCNC(=O)Cc2ccc(N(C)C(=O)CCN3CCC(OC(=O)Nc4ccccc4-c4ccccc4)CC3)cc2)c1)NC[C@H](O)c1ccc(O)c2[nH]c(=O)ccc12 [Compound I-86, Biphenyl-2-ylcarbamic Acid 1-{2-[(4-{[2-(3-{(R)-2-[(R)-2-Hydroxy-2-(8-hydroxy-2-oxo-1,2-dihydroquinolin-5-yl)ethylamino]propyl}phenyl)-ethylcarbamoyl]methyl}phenyl)methylcarbamoyl]ethyl}piperidin-4-yl Ester Ditrifluoroacetic Acid Salt]	> 30

same assay, conditions: inhaled or nasal; rat, 100 μg by inhalation, 24 h after administration; read-out: Broncho. at 24 h

SMILES	inhibition in vivo at 0.1 mg [%]
Cc1ccc(C(=O)Nc2ccc(CCNC[C@H](O)c3ccc(O)c4[nH]c(=O)ccc34)cc2)cc1N(C)C(=O)CCN1CCC(OC(=O)Nc2ccccc2-c2ccccc2)CC1 [Compound I-35]	> 30

same assay, conditions: rat, 100 μg by inhalation, 24 h after administration

SMILES	Broncho. at 24 h
CN(C(=O)CCN1CCC(OC(=O)Nc2ccccc2-c2ccccc2)CC1)c1ccc(CC(=O)NCc2ccc(CCNC[C@H](O)c3ccc(O)c4[nH]c(=O)ccc34)cc2)cc1 [Compound I-64]	No
CC(Cc1ccc(CNC(=O)Cc2ccc(N(C)C(=O)CCN3CCC(OC(=O)Nc4ccccc4-c4ccccc4)CC3)cc2)cc1)NC[C@H](O)c1ccc(O)c2[nH]c(=O)ccc12 (stereo partly drawn) [Compound I-66]	No
Cc1ccc(C(=O)Nc2cccc(CC(C)NC[C@H](O)c3ccc(O)c4[nH]c(=O)ccc34)c2)cc1N(C)C(=O)CCN1CCC(OC(=O)Nc2ccccc2-c2ccccc2)CC1 (stereo partly drawn) [Compound I-37]	No
C[C@H](Cc1cccc(CC(=O)NCCCN(C)C(=O)CCN2CCC(OC(=O)Nc3ccccc3-c3ccccc3)CC2)c1)NC[C@H](O)c1ccc(O)c2[nH]c(=O)ccc12 [Compound I-12]	No
Cc1cc(NC(=O)CCCCN(C)C(=O)CCN2CCC(OC(=O)Nc3ccccc3-c3ccccc3)CC2)c(C)cc1CNC[C@H](O)c1ccc(O)c2[nH]c(=O)ccc12 [Compound I-18, Biphenyl-2-ylcarbamic Acid 1-(2-{[4-(4-{[(R)-2-Hydroxy-2-(8-hydroxy-2-oxo-1,2-dihydroquinolin-5-yl)ethylamino]methyl}-2,5-dimethylphenylcarbamoyl)butyl]methylcarbamoyl}ethyl)piperidin-4-yl Ester Ditrifluoroacetic Acid Salt]	Yes (Bronchoprotective effect present at 24 h, e.g., ≧30% inhibition of the MCh response at 24 h in the rat Einthoven assay (100 μg))
CC(Cc1cccc(CC(=O)Nc2cccc(N(C)C(=O)CCN3CCC(OC(=O)Nc4ccccc4-c4ccccc4)CC3)c2)c1)NC[C@H](O)c1ccc(O)c2[nH]c(=O)ccc12 (stereo partly drawn) [Compound I-52]	No
C[C@@H](Cc1cccc(CC(=O)NCc2ccc(N(C)C(=O)CCN3CCC(OC(=O)Nc4ccccc4-c4ccccc4)CC3)cc2)c1)NC[C@H](O)c1ccc(O)c2[nH]c(=O)ccc12 [Compound I-79]	No
CN(C(=O)CCN1CCC(OC(=O)Nc2ccccc2-c2ccccc2)CC1)c1cccc(C(=O)Nc2cccc(CCNC[C@H](O)c3ccc(O)c4[nH]c(=O)ccc34)c2)c1 [Compound I-32]	No
CC(Cc1cccc(CNC(=O)c2cccc(N(C)C(=O)CCN3CCC(OC(=O)Nc4ccccc4-c4ccccc4)CC3)c2)c1)NC[C@H](O)c1ccc(O)c2[nH]c(=O)ccc12 (stereo partly drawn) [Compound I-44]	No
COc1cc(CNC[C@H](O)c2ccc(O)c3[nH]c(=O)ccc23)ccc1NC(=O)c1cccc(N(C)C(=O)CCN2CCC(OC(=O)Nc3ccccc3-c3ccccc3)CC2)c1 [Compound I-29]	No
C[C@H](Cc1ccc(NC(=O)c2cccc(N(C)C(=O)CCN3CCC(OC(=O)Nc4ccccc4-c4ccccc4)CC3)c2)cc1)NC[C@H](O)c1ccc(O)c2[nH]c(=O)ccc12 [Compound I-42]	No
Cc1cc(CNC[C@H](O)c2ccc(O)c3[nH]c(=O)ccc23)ccc1NC(=O)c1ccc(C)c(N(C)C(=O)CCN2CCC(OC(=O)Nc3ccccc3-c3ccccc3)CC2)c1 [Compound I-28]	No
Cc1ccc(C(=O)Nc2cccc(CCNC[C@H](O)c3ccc(O)c4[nH]c(=O)ccc34)c2)cc1N(C)C(=O)CCN1CCC(OC(=O)Nc2ccccc2-c2ccccc2)CC1 [Compound I-33]	No
Cc1cc(CNC[C@H](O)c2ccc(O)c3[nH]c(=O)ccc23)ccc1NC(=O)c1cccc(N(C)C(=O)CCN2CCC(OC(=O)Nc3ccccc3-c3ccccc3)CC2)c1 [Compound I-27]	No
CN(CCCCC(=O)Nc1ccc(CNC[C@H](O)c2ccc(O)c3[nH]c(=O)ccc23)cc1)C(=O)CCN1CCC(OC(=O)Nc2ccccc2-c2ccccc2)CC1 [Compound I-14, Biphenyl-2-ylcarbamic Acid 1-(2-{[4-(4-{[(R)-2-hydroxy-2-(8-hydroxy-2-oxo-1,2-dihydroquinolin-5-yl)ethylamino]methyl}phenylcarbamoyl)-butyl]methylcarbamoyl}ethyl)piperidin-4-yl Ester Ditrifluoroacetic Acid Salt]	Yes (Bronchoprotective effect present at 24 h, e.g., ≧30% inhibition of the MCh response at 24 h in the rat Einthoven assay (100 μg))
Cc1ccc(C(=O)NCc2cccc(CC(C)NC[C@H](O)c3ccc(O)c4[nH]c(=O)ccc34)c2)cc1N(C)C(=O)CCN1CCC(OC(=O)Nc2ccccc2-c2ccccc2)CC1 (stereo partly drawn) [Compound I-45]	No
C[C@@H](Cc1cccc(NC(=O)c2cccc(N(C)C(=O)CCN3CCC(OC(=O)Nc4ccccc4-c4ccccc4)CC3)c2)c1)NC[C@H](O)c1ccc(O)c2[nH]c(=O)ccc12 [Compound I-39]	No
CC(Cc1ccc(CC(=O)NCc2ccc(N(C)C(=O)CCN3CCC(OC(=O)Nc4ccccc4-c4ccccc4)CC3)cc2)cc1)NC[C@H](O)c1ccc(O)c2[nH]c(=O)ccc12 (stereo partly drawn) [Compound I-80]	No
Cc1cc(CNC[C@H](O)c2ccc(O)c3[nH]c(=O)ccc23)ccc1NC(=O)CCCN(C)C(=O)CCN1CCC(OC(=O)Nc2ccccc2-c2ccccc2)CC1 [Compound I-2]	No
Cc1cc(NC(=O)c2cccc(N(C)C(=O)CCN3CCC(OC(=O)Nc4ccccc4-c4ccccc4)CC3)c2)c(C)cc1CNC[C@H](O)c1ccc(O)c2[nH]c(=O)ccc12 [Compound I-30]	No
C[C@@H](Cc1cccc(CCNC(=O)c2ccc(N(C)C(=O)CCN3CCC(OC(=O)Nc4ccccc4-c4ccccc4)CC3)cc2)c1)NC[C@H](O)c1ccc(O)c2[nH]c(=O)ccc12 [Compound I-56]	No
C[C@H](Cc1cccc(NC(=O)c2cccc(N(C)C(=O)CCN3CCC(OC(=O)Nc4ccccc4-c4ccccc4)CC3)c2)c1)NC[C@H](O)c1ccc(O)c2[nH]c(=O)ccc12 [Compound I-38]	No
